Reference: patent US20060223837A1 (priority 2005, published 2006)

Tests used:
human VR1 [1] = biological target: T1, human VR1 (Homo sapiens, UniProt Q8NER1); assay: Human VR1 [3H]RTX binding assay; details: for Ki: [3H]RTX binding, HEK293 membranes; for h Binding % I (1 μM) / inhibition at 1 µM: inhibition of [3H]RTX binding at 1 μM; for inhibition at 1 µM: read-out: h Binding % I (1 μM)
T1 construct: expressed in transfected cells; host or cells: HEK293
Protocol: Compounds of the present invention were tested for their ability to inhibit the binding of tritiated resiniferatoxin ([^3H] RTX) to human VR1 receptors in a [^3H] RTX binding assay, as previously described (Zhang, Sui-Po. Improved ligand binding assays for vanilloid receptors. PCT Int. Appl. (2002), WO 0233411 A1 20020425 AN 2002:315209; Grant, Elfrida R., Dubin, Adrienne E., Zhang, Sui-Po, Zivin, Robert A., Zhong, Zhong Simultaneous intracellular calcium and sodium flux imaging in human VR1-transfected human embryonic kidney cells: a method to resolve ionic dependence of VR1-mediated cell death. J. Pharmacol. Exp. ther., 2002, 300(1), 9-17.) HEK293 cells were transfected with human VR1 and washed with Hank's balanced Salt Solution, dissociated with cell dissociation buffer (Sigma), and then centrifuged at 1000× g for 5 min. Cell pellets were homogenized in cold 20 mM HEPES buffer (pH 7.4), containing 5.8 mM NaCl, 320 mM sucrose, 2 mM MgCl2, 0.75 CaCl2 and 5 mM KCl and centrifuged at 1000× g for 15 min. The resultant supernate was then centrifuged at 40000× g for 15 min. The pelleted membranes were stored in a freezer at −80 C.
Approximately 120 μg protein/ml from membranes were incubated with indicated concentrations of [^3H]RTX in 0.5 ml of the HEPES buffer (pH 7.4) containing 0.25 mg/mL fatty acid-free bovine serum albumin at 37 C for 60 min. After cooling the reaction mixture to 4 C, 0.1 mg (x-acid glycoprotein was added to each sample, which was incubated at 4 C for 15 min and then centrifuged at 18500× g for 15 min. The tip of the microcentrifuge tube containing the pellet was cut off. Bound radioactivity was quantified by scintillation counting. Non-specific binding was assessed in the presence of 200 nM unlabeled resiniferatoxin.
Data were calculated according to the equation: % inhibtion=(total binding−binding)*100/(total binding−non specific binding).
Ki values were calculated based on an average of duplicate measurements using a GraphPad Prism program.

human VR1 [2] = biological target: T1, human VR1; assay: Human VR1 functional assay (FLIPR intracellular Ca2+); type: cell-based; details: for IC50: antagonism of capsaicin-induced Ca2+ increase, read-out: h IC50; for inhibition at 5 µM: read-out: h % I (5 μM); for inhibition at 1 µM: read-out: h % I (1 μM); for Emax at 12 µM: read-out: % Response Relative to EC80 of Capsaicin (12 μM); for EC50: agonist-induced Ca2+ increase, read-out: h EC50; for inhibition at 10 µM: read-out: h % I (10 μM)
Method in brief: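 Read-out was Ca2+-dye fluorescence by FLIPR: compounds at varying concentrations were added to dye-loaded human VR1 HEK293 cells and monitored 5 min before capsaicin addition ([…], approx. EC80). Dose-response data, averaged over four wells, gave EC50 or IC50.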

[3] = inhibition of capsaicin response, 5 μM
[4] = inhibition of capsaicin response

T1 sequence (Q8NER1 whole entry): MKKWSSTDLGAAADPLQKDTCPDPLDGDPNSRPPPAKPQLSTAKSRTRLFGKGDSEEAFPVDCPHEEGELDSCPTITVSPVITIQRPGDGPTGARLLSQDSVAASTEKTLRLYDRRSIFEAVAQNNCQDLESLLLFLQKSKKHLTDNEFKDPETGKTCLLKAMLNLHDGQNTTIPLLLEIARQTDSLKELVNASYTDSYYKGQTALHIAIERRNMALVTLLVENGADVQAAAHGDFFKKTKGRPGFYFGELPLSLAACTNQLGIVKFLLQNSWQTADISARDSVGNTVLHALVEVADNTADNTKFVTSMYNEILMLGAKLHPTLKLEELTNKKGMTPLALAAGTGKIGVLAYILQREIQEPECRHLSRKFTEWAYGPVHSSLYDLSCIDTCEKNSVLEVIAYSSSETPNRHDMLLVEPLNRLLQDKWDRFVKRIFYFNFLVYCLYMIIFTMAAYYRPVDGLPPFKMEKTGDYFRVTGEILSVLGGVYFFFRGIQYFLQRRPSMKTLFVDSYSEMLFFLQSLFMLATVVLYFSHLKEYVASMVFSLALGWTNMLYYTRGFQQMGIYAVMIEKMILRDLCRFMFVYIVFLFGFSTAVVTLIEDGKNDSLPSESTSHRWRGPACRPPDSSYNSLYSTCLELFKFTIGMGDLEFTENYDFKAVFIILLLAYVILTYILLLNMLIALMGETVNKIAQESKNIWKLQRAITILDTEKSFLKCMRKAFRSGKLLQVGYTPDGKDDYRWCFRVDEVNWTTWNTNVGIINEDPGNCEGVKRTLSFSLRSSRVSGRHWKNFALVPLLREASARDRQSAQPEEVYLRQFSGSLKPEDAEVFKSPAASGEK

Cc1cc(NC(=O)CCc2ccc(C(C)(C)C)cc2)cnc1-c1cccc(C#N)c1 [Cpd 246]
Ki (human VR1 [1]): 0.371 µM
IC50 (human VR1 [2]): 0.543 µM
inhibition at 5 µM (human VR1 [2]; [3]): 105%

O=C(CCc1ccc(Cl)cc1)Nc1ccc(-n2ccnc2)c(C(F)(F)F)c1 [Cpd 242]
Ki (human VR1 [1]): 2.11 µM
IC50 (human VR1 [2]): 0.4 µM
inhibition at 1 µM (human VR1 [2]; [4]): 76%

CN(C)C(=O)c1cccc(-c2cccc(NC(=O)CCc3ccc(C(C)(C)C)cc3)c2)c1 [Cpd 34]
h Binding % I (1 μM) (human VR1 [1]): 17%
h % I (10 μM) (human VR1 [2]; [4]): 14%

O=C(CCc1ccc(C(F)(F)F)cc1)Nc1ccc(C2=NOS(=O)N2)c(C(F)(F)F)c1 (stereo not shown) [Cpd 245, N-[4-(2-Oxo-2,3-dihydro-2λ^4-[1,2,3,5]oxathiadiazol-4-yl)-3-trifluoromethyl-phenyl]-3-(4-trifluoromethyl-phenyl)-propionamide]
Ki (human VR1 [1]): 0.974 µM
IC50 (human VR1 [2]): 0.491 µM
inhibition at 1 µM (human VR1 [2]; [4]): 70%
inhibition at 5 µM (human VR1 [2]; [3]): 9%

CC(C)(C)c1ccc(CCC(=O)Nc2ccc(-c3cccc(OCCN)c3)cc2)cc1 [Cpd 45]
inhibition at 1 µM (human VR1 [1]): 16%
Emax at 12 µM (human VR1 [2]; agonist response): 84%
EC50 (human VR1 [2]): 2.4 µM

CC(C)(C)c1ccc(CCC(=O)Nc2ccc(-c3cccc([N+](=O)[O-])c3)cc2)cc1 [Cpd 11]
Ki (human VR1 [1]): 0.145 µM
inhibition at 1 µM (human VR1 [1]): 84%
inhibition at 10 µM (human VR1 [2]; [4]): 36%

Cc1cc(NC(=O)CCc2ccc(N(C)C3CCCCC3)cc2)cnc1-n1cnc(Cl)c1Cl [Cpd 232]
Ki (human VR1 [1]): 0.08 µM
IC50 (human VR1 [2]): 0.249 µM
inhibition at 1 µM (human VR1 [2]; [4]): 99%

CC(C)(C)c1ccc(CCC(=O)Nc2ccc(-c3cccc(C(F)(F)F)c3)cc2)cc1 [Cpd 12]
h Binding % I (1 μM) (human VR1 [1]): 36%
% Response Relative to EC80 of Capsaicin (12 μM) (human VR1 [2]; agonist response): 47%

CC(C)(C)c1ccc(CCC(=O)Nc2ccc(-n3cncn3)cc2)cc1 [Cpd 198]
inhibition at 1 µM (human VR1 [1]): 37%
IC50 (human VR1 [2]): 0.00382 µM

CN(C)C(=O)c1cccc(-c2ccc(NC(=O)/C=C/c3ccc(C(C)(C)C)cc3)cc2)c1 [Cpd 36]
h Binding % I (1 μM) (human VR1 [1]): 16%
% Response Relative to EC80 of Capsaicin (12 μM) (human VR1 [2]; agonist response): 55%

Cc1cn(-c2ccc(NC(=O)CCc3ccc(C(F)(F)F)cc3)cc2C(F)(F)F)cn1 [Cpd 204, N-[4-(4-Methyl-imidazol-1-yl)-3-trifluoromethyl-phenyl]-3-(4-trifluoromethyl-phenyl)-propionamide]
Ki (human VR1 [1]): 0.0319 µM
IC50 (human VR1 [2]): 0.037 µM
inhibition at 1 µM (human VR1 [2]; [4]): 100%

NC(=O)c1cccc(-c2ccc(NC(=O)CCc3ccc(C(F)(F)F)cc3)cn2)c1 [Cpd 144]
h Binding % I (1 μM) (human VR1 [1]): 1%
% Response Relative to EC80 of Capsaicin (12 μM) (human VR1 [2]; agonist response): 73%

CC(C)(C)c1ccc(CCC(=O)Nc2cnc(-n3cnc(Cl)c3Cl)c(C(F)(F)F)c2)cc1 [Cpd 224]
Ki (human VR1 [1]): 0.0184 µM
IC50 (human VR1 [2]): 0.147 µM
inhibition at 5 µM (human VR1 [2]; [3]): 101%

CC(C)(C)c1ccc(CCC(=O)Nc2ccc(-c3cccc(O)c3)c(CO)c2)cc1 [Cpd 93]
Ki (human VR1 [1]): 0.034 µM
Emax at 6 µM (human VR1 [2]; agonist response, 6 μM, read-out: % Response Relative to EC80 of Capsaicin (6 μM)): 153%
EC50 (human VR1 [2]): 0.065 µM
inhibition at 1 µM (human VR1 [2]; [4]): 93%

CC(C)(C)c1ccc(CCC(=O)Nc2ccc(-c3ccncc3)c3ccccc23)cc1 [Cpd 153]
h Binding % I (1 μM) (human VR1 [1]): 1%
h % I (5 μM) (human VR1 [2]; [3]): 25%

CC(C)(C)c1ccc(CCC(=O)Nc2ccc(-c3cccc(NCCO)c3)cc2)cc1 [Cpd 46]
inhibition at 1 µM (human VR1 [1]): 34%
IC50 (human VR1 [2]): 4.77 µM
inhibition at 10 µM (human VR1 [2]; [4]): 53%

CC(C)(C)c1ccc(CCC(=O)Nc2ccc(-c3cccnc3)cc2)cc1 [Cpd 107]
Ki (human VR1 [1]): 0.12 µM
inhibition at 1 µM (human VR1 [1]): 82%
Emax at 12 µM (human VR1 [2]; agonist response): 78%

CC(C)(C)c1ccc(CCC(=O)Nc2ccc(-c3cccc(O)c3)cc2CO)cc1 [Cpd 71]
h Binding % I (1 μM) (human VR1 [1]): 1%
h % I (10 μM) (human VR1 [2]; [4]): 5%

CC(C)(C)c1ccc(CCC(=O)Nc2ccc(-c3ccc(O)cc3)nc2)cc1 [Cpd 133]
Ki (human VR1 [1]): 0.0109 µM
inhibition at 1 µM (human VR1 [1]): 101%
Emax at 12 µM (human VR1 [2]; agonist response): 95%

O=C(CCc1ccc(C(F)(F)F)cc1)Nc1ccc(-n2ccnc2)c(C(F)(F)F)c1 [Cpd 207]
Ki (human VR1 [1]): 0.0478 µM
IC50 (human VR1 [2]): 0.0402 µM
inhibition at 1 µM (human VR1 [2]; [4]): 95%
inhibition at 5 µM (human VR1 [2]; [3]): 100%

CC(C)(C)c1ccc(CCC(=O)Nc2ccccc2-c2ccc(CO)cc2)cc1 [Cpd 20]
inhibition at 1 µM (human VR1 [1]): 1%
IC50 (human VR1 [2]): 2.08 µM
inhibition at 10 µM (human VR1 [2]; [4]): 70%

COC(=O)c1cccc(-c2ccc(NC(=O)CCc3ccc(C(C)(C)C)cc3)cc2)c1 [Cpd 29, 4′-[3-(4-tert-butyl-phenyl)-propionylamino]-biphenyl-3-carboxylic acid methyl ester]
inhibition at 1 µM (human VR1 [1]): 43%
inhibition at 10 µM (human VR1 [2]; [4]): 36%

CC(=O)Nc1cccc(-c2ccc(NC(=O)CCc3ccc(C(F)(F)F)cc3)cc2)c1 [Cpd 75]
h Binding % I (1 μM) (human VR1 [1]): 6%
% Response Relative to EC80 of Capsaicin (12 μM) (human VR1 [2]; agonist response): 82%

O=C(CCc1ccc(C(F)(F)F)cc1)Nc1ccc(-c2ccc(O)cc2)nc1 [Cpd 148]
Ki (human VR1 [1]): 0.0986 µM
inhibition at 1 µM (human VR1 [1]): 73%
Emax at 12 µM (human VR1 [2]; agonist response): 74%

O=C(CCc1ccc(C(F)(F)F)cc1)Nc1ccc(-c2ccnc(F)c2)c(C(F)(F)F)c1 [Cpd 254]
Ki (human VR1 [1]): 0.293 µM
IC50 (human VR1 [2]): 0.995 µM
inhibition at 5 µM (human VR1 [2]; [3]): 98%

O=C(CCc1ccc(C(F)(F)F)cc1)Nc1ccc(-n2cnc(Cl)c2Cl)c(C(F)(F)F)c1 [Cpd 218]
Ki (human VR1 [1]): 0.0199 µM
IC50 (human VR1 [2]): 0.0972 µM
inhibition at 5 µM (human VR1 [2]; [3]): 101%

O=C(CCc1ccc(C(F)(F)F)cc1)Nc1cnc(-n2cnc(Cl)c2Cl)c(C(F)(F)F)c1 [Cpd 251]
Ki (human VR1 [1]): 0.135 µM
IC50 (human VR1 [2]): 0.724 µM
inhibition at 5 µM (human VR1 [2]; [3]): 101%

Cc1cc(NC(=O)CCc2ccc(C(C)(C)C)cc2)cnc1-c1ccccc1O [Cpd 160, 3-(4-tert-butyl-phenyl)-N-[6-(2-hydroxy-phenyl)-5-methyl-pyridin-3-yl]-propionamide]
inhibition at 1 µM (human VR1 [1]): 101%
IC50 (human VR1 [2]): 0.027 µM
inhibition at 5 µM (human VR1 [2]; [3]): 96%

O=C(CCc1ccc(C(F)(F)F)cc1)Nc1ccc(-c2cccc(CO)c2)cc1 [Cpd 79]
h Binding % I (1 μM) (human VR1 [1]): 19%
% Response Relative to EC80 of Capsaicin (12 μM) (human VR1 [2]; agonist response): 74%

CC(C)(C)c1ccc(CCC(=O)Nc2ccc(-c3cccc(O)c3)nc2)cc1 [Cpd 129]
Ki (human VR1 [1]): 0.041 µM
inhibition at 1 µM (human VR1 [1]): 88%
Emax at 12 µM (human VR1 [2]; agonist response): 126%
EC50 (human VR1 [2]): 0.017 µM

CC(C)(C)OC(=O)Nc1cccc(-c2ccc(NC(=O)CCc3ccc(C(C)(C)C)cc3)cc2)c1 [Cpd 41]
Ki (human VR1 [1]): 0.109 µM
inhibition at 1 µM (human VR1 [1]): 78.8%
Emax at 12 µM (human VR1 [2]; agonist response): 43%
inhibition at 10 µM (human VR1 [2]; [4]): 30%
